Data reported in patent publication US20190309272A1, “Genetically Modified Cell Lines Including a TP53 Modification and Methods of Use” (UNIVERSITY OF SOUTH CAROLINA, priority 2018, published 2019).

What was measured:
Format in all cases: cell-based, Human
MCF7 PR WT A8 = assay: Drug treatment of single cell clone PR WT A8; details: ten day drug treatment; note: unit not given here
MCF7 WT Parental pool = assay: Drug screening, resazurin, MCF7 wild type parental pool; details: for area under the curve (AUC): PR WT Pool, ten day drug treatment (Table 3); for MCF7 WT Parental pool (AUC): ten-day drug treatment, 156.25 nM to 10 μM, resazurin fluorescence
MCF7 TP53 KO 56 C5 = assay: Drug treatment of single cell clone KO 56 C5; details: ten day drug treatment
MCF7 PR WT B8 = assay: Drug treatment of single cell clone PR WT B8; details: ten day drug treatment; note: unit not given here
MCF7 TP53 KO 56 A5 = assay: Drug treatment of single cell clone KO 56 A5; details: ten day drug treatment
MCF7 TP53 KO 34 D4 = assay: Drug treatment of single cell clone KO 34 D4; details: ten day drug treatment; note: unit not given here
MCF7 TP53 KO 56 E3 = assay: Drug treatment of single cell clone KO 56 E3; details: ten day drug treatment
MCF7 TP53 KO 56 E1 = assay: Drug treatment of single cell clone KO 56 E1; details: ten day drug treatment; note: unit not given here
MCF7 TP53 KO 56 A4 = assay: Drug treatment of single cell clone KO 56 A4; details: ten day drug treatment
MCF7 TP53 KO 3.4 pool = assay: Drug screening, resazurin, TP53 KO 3.4 pool; details: for area under the curve (AUC): KO 34 Pool, ten day drug treatment (Table 3); for TP53 KO 3.4 pool (AUC): ten-day drug treatment, 156.25 nM to 10 μM, resazurin fluorescence
MCF7 PR WT C7 = assay: Drug treatment of single cell clone PR WT C7; details: ten day drug treatment; note: unit not given here
MCF7 TP53 KO 56 A7 = assay: Drug treatment of single cell clone KO 56 A7; details: ten day drug treatment; note: unit not given here
MCF7 TP53 KO 34 E1 = assay: Drug treatment of single cell clone KO 34 E1; details: ten day drug treatment
MCF7 TP53 KO 34 B5 = assay: Drug treatment of single cell clone KO 34 B5; details: ten day drug treatment; note: unit not given here
MCF7 TP53 KO 56 A8 = assay: Drug treatment of single cell clone KO 56 A8; details: ten day drug treatment
MCF7 TP53 KO 5.6 pool = assay: Drug screening, resazurin, TP53 KO 5.6 pool; details: for area under the curve (AUC): KO 56 Pool, ten day drug treatment (Table 3); for TP53 KO 5.6 pool (AUC): ten-day drug treatment, 156.25 nM to 10 μM, resazurin fluorescence
MCF7 PR WT G2 = assay: Drug treatment of single cell clone PR WT G2; details: ten day drug treatment; note: unit not given here
MCF7 TP53 KO 56 A6 = assay: Drug treatment of single cell clone KO 56 A6; details: ten day drug treatment

SMILES: O=c1[nH]cc(F)c(=O)[nH]1 [Fluorouracil]
- area under the curve (AUC) (MCF7 PR WT A8): 2.126
- area under the curve (AUC) (MCF7 WT Parental pool): 2.156
- MCF7 WT Parental pool (AUC) (MCF7 WT Parental pool): 6.548
- area under the curve (AUC) (MCF7 TP53 KO 56 C5): 1.826
- area under the curve (AUC) (MCF7 PR WT B8): 1.886
- area under the curve (AUC) (MCF7 TP53 KO 56 A5): 1.46
- area under the curve (AUC) (MCF7 TP53 KO 34 D4): 1.812
- area under the curve (AUC) (MCF7 TP53 KO 56 E3): 1.645
- area under the curve (AUC) (MCF7 TP53 KO 56 E1): 1.697
- area under the curve (AUC) (MCF7 TP53 KO 56 A4): 1.716
- area under the curve (AUC) (MCF7 TP53 KO 3.4 pool): 1.721
- TP53 KO 3.4 pool (AUC) (MCF7 TP53 KO 3.4 pool): 3.782
- area under the curve (AUC) (MCF7 PR WT C7): 2.105
- area under the curve (AUC) (MCF7 TP53 KO 56 A7): 1.81
- area under the curve (AUC) (MCF7 TP53 KO 34 E1): 1.945
- area under the curve (AUC) (MCF7 TP53 KO 34 B5): 1.618
- area under the curve (AUC) (MCF7 TP53 KO 56 A8): 2.02
- area under the curve (AUC) (MCF7 TP53 KO 5.6 pool): 1.745
- TP53 KO 5.6 pool (AUC) (MCF7 TP53 KO 5.6 pool): 4.286
- area under the curve (AUC) (MCF7 PR WT G2): 2.265
- area under the curve (AUC) (MCF7 TP53 KO 56 A6): 1.811

SMILES: COc1ccc(C2=N[C@@H](c3ccc(Cl)cc3)[C@@H](c3ccc(Cl)cc3)N2C(=O)N2CCNC(=O)C2)c(OC(C)C)c1 [Nutlin3]
- area under the curve (AUC) (MCF7 PR WT A8): 0.9589
- area under the curve (AUC) (MCF7 WT Parental pool): 1.16
- MCF7 WT Parental pool (AUC) (MCF7 WT Parental pool): 3.686
- area under the curve (AUC) (MCF7 PR WT B8): 0.8828
- area under the curve (AUC) (MCF7 PR WT C7): 1.042
- area under the curve (AUC) (MCF7 PR WT G2): 1.011

SMILES: O=C1[O][Pt]2([NH][C@@H]3CCCC[C@H]3[NH]2)[O]C1=O [Oxaliplatin]
- area under the curve (AUC) (MCF7 PR WT A8): 0.7779
- area under the curve (AUC) (MCF7 WT Parental pool): 0.9557
- MCF7 WT Parental pool (AUC) (MCF7 WT Parental pool): 2.372
- area under the curve (AUC) (MCF7 TP53 KO 56 C5): 1.239
- area under the curve (AUC) (MCF7 PR WT B8): 0.7911
- area under the curve (AUC) (MCF7 TP53 KO 56 A5): 1.197
- area under the curve (AUC) (MCF7 TP53 KO 34 D4): 1.392
- area under the curve (AUC) (MCF7 TP53 KO 56 E3): 0.9635
- area under the curve (AUC) (MCF7 TP53 KO 56 E1): 1.208
- area under the curve (AUC) (MCF7 TP53 KO 56 A4): 1.29
- area under the curve (AUC) (MCF7 TP53 KO 3.4 pool): 1.25
- TP53 KO 3.4 pool (AUC) (MCF7 TP53 KO 3.4 pool): 5.272
- area under the curve (AUC) (MCF7 PR WT C7): 0.8311
- area under the curve (AUC) (MCF7 TP53 KO 56 A7): 1.23
- area under the curve (AUC) (MCF7 TP53 KO 34 E1): 1.46
- area under the curve (AUC) (MCF7 TP53 KO 34 B5): 0.973
- area under the curve (AUC) (MCF7 TP53 KO 56 A8): 1.229
- area under the curve (AUC) (MCF7 TP53 KO 5.6 pool): 1.164
- TP53 KO 5.6 pool (AUC) (MCF7 TP53 KO 5.6 pool): 5.118
- area under the curve (AUC) (MCF7 PR WT G2): 0.8186
- area under the curve (AUC) (MCF7 TP53 KO 56 A6): 1.243

SMILES: CC(=O)c1c(C)c2cnc(Nc3ccc(N4CCNCC4)cn3)nc2n(C2CCCC2)c1=O [Palbociclib]
- area under the curve (AUC) (MCF7 PR WT A8): 2.127
- area under the curve (AUC) (MCF7 WT Parental pool): 2.446
- MCF7 WT Parental pool (AUC) (MCF7 WT Parental pool): 3.461
- area under the curve (AUC) (MCF7 TP53 KO 56 C5): 1.632
- area under the curve (AUC) (MCF7 PR WT B8): 1.917
- area under the curve (AUC) (MCF7 TP53 KO 56 A5): 1.647
- area under the curve (AUC) (MCF7 TP53 KO 34 D4): 1.826
- area under the curve (AUC) (MCF7 TP53 KO 56 E3): 1.469
- area under the curve (AUC) (MCF7 TP53 KO 56 E1): 1.497
- area under the curve (AUC) (MCF7 TP53 KO 56 A4): 1.846
- area under the curve (AUC) (MCF7 TP53 KO 3.4 pool): 1.88
- TP53 KO 3.4 pool (AUC) (MCF7 TP53 KO 3.4 pool): 2.923
- area under the curve (AUC) (MCF7 PR WT C7): 2.543
- area under the curve (AUC) (MCF7 TP53 KO 56 A7): 1.753
- area under the curve (AUC) (MCF7 TP53 KO 34 E1): 2.274
- area under the curve (AUC) (MCF7 TP53 KO 34 B5): 1.522
- area under the curve (AUC) (MCF7 TP53 KO 56 A8): 2.031
- area under the curve (AUC) (MCF7 TP53 KO 5.6 pool): 1.457
- TP53 KO 5.6 pool (AUC) (MCF7 TP53 KO 5.6 pool): 3.234
- area under the curve (AUC) (MCF7 PR WT G2): 2.542
- area under the curve (AUC) (MCF7 TP53 KO 56 A6): 1.681

SMILES: C=CC(=O)N1CCC[C@@H](n2nc(-c3ccc(Oc4ccccc4)cc3)c3c(N)ncnc32)C1 [Ibrutinib]
- MCF7 WT Parental pool (AUC) (MCF7 WT Parental pool): 6.35
- TP53 KO 3.4 pool (AUC) (MCF7 TP53 KO 3.4 pool): 5.166
- TP53 KO 5.6 pool (AUC) (MCF7 TP53 KO 5.6 pool): 5.711

SMILES: COc1cc(Nc2c(C#N)cnc3cc(OCCCN4CCN(C)CC4)c(OC)cc23)c(Cl)cc1Cl [Bosutinib]
- MCF7 WT Parental pool (AUC) (MCF7 WT Parental pool): 8.686
- TP53 KO 3.4 pool (AUC) (MCF7 TP53 KO 3.4 pool): 9.254
- TP53 KO 5.6 pool (AUC) (MCF7 TP53 KO 5.6 pool): 9.588

SMILES: CS(=O)(=O)CCNCc1ccc(-c2ccc3ncnc(Nc4ccc(OCc5cccc(F)c5)c(Cl)c4)c3c2)o1 [Laptinib]
- MCF7 WT Parental pool (AUC) (MCF7 WT Parental pool): 5.364
- TP53 KO 3.4 pool (AUC) (MCF7 TP53 KO 3.4 pool): 5.619
- TP53 KO 5.6 pool (AUC) (MCF7 TP53 KO 5.6 pool): 5.857
